From patent publication US20240316171A1, “COMPOSITIONS AND METHODS FOR TARGETED IMMUNOTHERAPY” (Dana-Farber Cancer Institute, Inc., priority 2018, published 2024)
Read-outs that look alike come from different tables or passages of the source.

Columns and labels:
[1] = Stock solutions/solubility; format: physicochemical; conditions: thermodynamic from solid
Procedure: Compound 1 was not soluble in buffer solution 50 mM 4-(2-hydroxyethyl)-1-piperazineethanesulfonic acid (HEPES) pH 7 at 2 mg/ml at room temperature overnight. In contrast, DMSO readily dissolved compound 1 at 2 mg/ml forming a clear solution. Compound 2 dissolved immediately at 1.5 mg/ml in buffer solution 50 mM HEPES pH 7 forming a yellow solution.

[2] = Uncaging of compound 1 with hydrogen peroxide (fluorescence, HPLC); conditions: relatively high H2O2 concentrations (100 mM), HPLC analysis of products
Procedure: Hydrogen peroxide is expected to uncage compound 1 to produce compound 2. […] 20 μM compound 1 samples were prepared by 1:100 dilution of stock into 50 mM HEPES pH 7 buffer and the reaction started by […] to give final concentrations of 0.3, 0.03 or 0.003 percent. The concentration of the 30% stock H2O2 was confirmed by measuring the absorbance at 240 nm using an extinction coefficient of 43.6 M^−1 cm^−1.
A time-course of the kinetic response of compound 1 to H2O2 at 100 mM H2O2 is illustrated in FIG. 10. Multiple (3) peaks, including compound 1, were observed by HPLC. […] The possible side products are shown below.

[3] = Uncaging in samples not treated with H2O2; format: physicochemical
Excerpt: Fluorescence-detected HPLC confirmed that H2O2 reaction with compound 3 produced the desired product (4). […] Addition of 0.5M EDTA, pH 8.0 (Ultrapure Grade, Boston BioProducts) to the samples remedied the undesired uncaging of the compounds.

[4] = 50 mM HEPES buffer, aqueous buffer, 50 mM HEPES pH 7, compound 1 at room temperature overnight, read-out: solubility in buffer solution

Row | solubility [1, 4] [µg/mL] | solubility ([1]; organic solvent or mixture, DMSO, clear solution, read-out: solubility in DMSO) [µg/mL] | stability of maleimide moiety in the presence of H2O2 [2] | uncaging without H2O2 [3] | Structure (SMILES)
1 | < 2000 | ≥ 2000 | maleimide moiety is unstable | Slow uncaging | CC1(C)[C@@H]2CC3OB(c4ccc5c(c4)Oc4cc(B6OC7C[C@@H]8C[C@@H](C8(C)C)[C@]7(C)O6)ccc4C54OC(=O)c5cc(NC(=O)CCOCCOCCNC(=O)CCN6C(=O)C=CC6=O)ccc54)O[C@@]3(C)[C@H]1C2 (stereo partly drawn) [Compound 1, 3-(2,5-dioxo-2,5-dihydro-1H-pyrrol-1-yl)-N-(2-(2-(3-oxo-3-((3-oxo-3′,6′-bis((3aS,4S,6S)-3a,5,5-trimethylhexahydro-4,6-methanobenzo[d][1,3,2]dioxaborol-2-yl)-3H-spiro[isobenzofuran-1,9′-xanthen]-5-yl)amino)propoxy)ethoxy)ethyl)propanamide]
2 | ≥ 1500 |  |  |  | O=C(CCN1C(=O)C=CC1=O)NCCOCCOCCC(=O)Nc1ccc2c(c1)C(=O)OC21c2ccc(O)cc2Oc2cc(O)ccc21 [Compound 2, N-(3′,6′-dihydroxy-3-oxo-3H-spiro[isobenzofuran-1,9′-xanthen]-5-yl)-3-(2-(2-(3-(2,5-dioxo-2,5-dihydro-1H-pyrrol-1-yl)propanamido)ethoxy)ethoxy)propanamide]
3 |  |  |  | Slow uncaging | CC1(C)[C@@H]2C[C@H]1C1OB(c3ccc4c(c3)Oc3cc(B5OC6C[C@@H]7C[C@@H](C7(C)C)[C@]6(C)O5)ccc3C43OC(=O)c4cc(NC(=O)CCOCCOCCNC(=O)CCN5C(=O)CC(SC[C@H](N)C(=O)O)C5=O)ccc43)O[C@@]1(C)C2 (stereo partly drawn) [Compound 3, S-(2,5-dioxo-1-(3-oxo-3-((2-(2-(3-oxo-3-((3-oxo-3′-((3aS,4S,6S)-3a,5,5-trimethylhexahydro-4,6-methanobenzo[d][1,3,2]dioxaborol-2-yl)-6′-((4R,6R,7aS)-5,5,7a-trimethylhexahydro-4,6-methanobenzo[d][1,3,2]dioxaborol-2-yl)-3H-spiro[isobenzofuran-1,9′-xanthen]-5-yl)amino)propoxy)ethoxy)ethyl)amino)propyl)pyrrolidin-3-yl)cysteine]
